These results are taken from patent publication US4824955A, “Selenium oxy chloride-pyridine or bipyridine complexes” (Nippon Kayaku Kabushiki Kaisha, priority 1985, dated 1989).

Each structure is given as a SMILES string. Several values for one entry are separate records, joined by “and”; a condition that tells them apart may be missing. Equal values may be shown once. Read-outs that look alike come from different tables or passages of the source.

The subject of one series is Enrlich carcinoma. Description: Antineoplastic activity against Enrlich carcinoma (life prolongation rate). Conditions: for response vs control in vivo at 16 mg/kg: Mus musculus, ip, 1440 h, read-out: Life prolongation rate (T/C %). The series is classed as in vivo, 5-week-old ICR mice (male).
The conditions of series [1]: intraperitoneal, once a day, 7 days, mice.
Series [2] relates to Salmonella typhimurium TA-98. Description: Antimutagenic activity, Ames method, against mutagenic action of benzpyrene. In kind it is cell-based. Conditions: with B(α)P and S-9 mix. The procedure: The antimutagenic activity was examined according to the Ames method by using Salmonella typhimurium TA-98 as test bacterium and Benzo(α)pyrene (B(α)P) as (TA-98) mutagen.
To a solution of 5 μg of B(α)P and a proper amount of a compound of this invention in 0.1 ml of DMSO were added 0.5 ml of S-9 mix and 0.1 ml of a TA-98 suspension, and the mixture was subjected to preincubation at 37° C. for 20 minutes.
This preincubated mixture was further added with 2 ml of soft agar, and after sufficient mixing, the mixture was uniformly spread on a gluclose minimum agar medium plate and incubated at 37° C. for 48 hours. Thereafter, the number of the colonies produced by reverse mutation was counted.
The number of the colonies existing in the medium containing neither B(α)P nor the compound of this invention was given as background.
The antimutagenic activity was determined as a mutation inhibition rate from the following formula: [formula]

The next series in a line: in vivo. Conditions: mouse, ip, LD50, intraperitoneal, once a day, 7 days, mice.
The mark [3] stands for this setting: 2.0 mg/kg/day, intraperitoneal, once a day, 7 days.
Where [4] appears, read: 4.0 mg/kg/day, intraperitoneal, once a day, 7 days.
[5] abbreviates: 8.0 mg/kg/day, intraperitoneal, once a day, 7 days.

Description for Enrlich carcinoma: Approximately 10^6 cells/0.2 ml of Enrlich carcinoma were inoculated into the abdominal cavity of each of the 5-week-old ICR mice (male) used for the test, and the test compounds were administered intraperitoneally to the mice of the treated group once a day for a period of 7 days, starting from the day after said inoculation. The mice of the control group was administered with a saline solution in the same way. Observation of the animals of both groups was continued for 60 days after the administration, and the life prolongation rate (T/C%, T/C×100) was determined from the average duration (days) of life of the mice of the treated group (T) and that of the mice of the control group (C).

Take `c1ccncc1` [Compound 2-1, Tetrabromoselenium-pyridine (1:2) complex]: the “Life prolongation rate (T/C %)” value in the series with Enrlich carcinoma (mouse, in vivo) is 185% and 171% and 222% and 146%. In addition, in series [1], the LD50 is recorded as over 16 mg/kg/day × 7.

Regarding `c1ccc(-c2ccccn2)nc1` [Compound 1-41, Selenium oxychloride-2,2'-dipyridyl (1:1) complex], the figures for the “Life prolongation rate (T/C %)” value with Enrlich carcinoma (setting [3]), with Enrlich carcinoma (setting [4]) and in the series on Enrlich carcinoma (setting [5]) were 230%, 237% and 312%, respectively. For the same compound, the “Inhibition rate (mutation inhibition rate)” value in series [2] (0.5 μg/plate) amounted to 22.6; in series [2] (1 μg/plate), 24.2; in series [2] (5 μg/plate), 33.6; in series [2] (10 μg/plate) it was 56.2; in series [2] (50 μg/plate), 67.5; in series [2] (100 μg/plate) it was 76.2. In addition, the “Inhibition rate (mutation inhibition rate)” value in series [2] (500 μg/plate) is 100. Besides, the Number of colonies in series [2] (0.5 μg/plate) came out at 238; in series [2] (1 μg/plate), 234; in series [2] (5 μg/plate), 209; in series [2] (10 μg/plate), 149; in series [2] (50 μg/plate) it was 119; in series [2] (100 μg/plate), 96. In series [2] (500 μg/plate), this compound had a Number of colonies of 16. The compound also yielded an LD50 in the series “in vivo” of 8 to 16 mg/kg.

For the compound `Cn1cnc2ccccc21` [Compound 1-40, Selenium oxychloride-N-methylbenzimidazole (1:1) complex], the “Life prolongation rate (T/C %)” value turned out to be 214% with Enrlich carcinoma (setting [3]), 230% in the series with Enrlich carcinoma (setting [4]) and 243% with Enrlich carcinoma (setting [5]). Besides, the response vs control in vivo at 16 mg/kg with Enrlich carcinoma (intraperitoneal, (Note 2) administered for 2 days) was 123%. For the same compound, the LD50 in series [1] is given as 8-16 mg/kg/day × 7.

As to `c1ccc(-c2ccccn2)nc1` [Compound 2-13, Tetrachloroselenium-2,2'-dipyridinyl (1:2) complex], the results for the “Life prolongation rate (T/C %)” value in the series on Enrlich carcinoma (setting [3]), with Enrlich carcinoma (setting [4]) and in the series with Enrlich carcinoma (setting [5]) were 152%, 180% and 185%, respectively. The response vs control in vivo at 16 mg/kg with Enrlich carcinoma (intraperitoneal, (Note 5) administered for 6 days) worked out at 97%. The LD50 in series [1] is over 16 mg/kg/day × 7.
